This is an account of results in ChEMBL document CHEMBL6153170 (J Med Chem, 2025).

The IC50 is the midpoint of a concentration-inhibition curve. What is called Tmax is the time from dosing to the highest level. Broadly, the AUC(0-t) is exposure summed from dosing to a finite time, without extrapolation to infinity. The low end stands for low exposure, the high end for high exposure. A word on the Kd: it is a measure of binding affinity in units of concentration.

Data set [1] can be described thus: Toxicity in C57 mouse assessed as myelosuppression by measuring hemoglobin level at 20 mg/kg/day, IG administered for 14 days by heat map analysis. Type of data set: organism-based. To be noted: in vivo, po, 336 h, time 14 day.
Data set [2] addresses Programmed cell death 1 ligand 1 (Mus musculus) (UniProt Q9EP73). As to the kind of experiment: Binding affinity to C-terminal 6His-tagged recombinant mouse PD-L1 (1 to 238 residues) expressed in HEK293 cells assessed as change in secondary structure conformation at 2 uM incubated for 30 mins by CD spectra analysis. Format: cell-based.
Data set [3] relates to Jurkat. Description: Cytotoxicity against human Jurkat T cells assessed as reduction in cell viability at 3.3 to 10 uM incubated for 48 hrs. Type of data set: functional, cell-based. To be noted: dose 3.3-10 µM.
Data set [4] deals with Jurkat. Description: cells. To be noted: Homo sapiens, 72 h.
Data set [5] is described as follows: Toxicity in C57 mouse assessed as change in GLO level at 20 mg/kg/day, IG administered for 14 days by heat map analysis. Type of data set: organism-based. To be noted: in vivo, po, 336 h, time 14 day.
Data set [6] is described as follows: Tmax in male Sprague-Dawley rat at 2 mg/kg, iv measured after 48 hrs by triple quadrupole mass spectrometric analysis. Format: ADME, organism-based. To be noted: in vivo.
Data set [7] can be described thus: Toxicity in C57 mouse assessed as myelosuppression by measuring MPV level at 20 mg/kg/day, IG administered for 14 days by heat map analysis. Format: organism-based. To be noted: in vivo, po, 336 h, time 14 day.
The subject of data set [8] is B16-F10. Description: Effect on Histone H3 protein level in mouse B16-F10 cells at 0.1 to 2 uM incubated for 12 hrs by Western blot analysis. Type of data set: functional, cell-based. To be noted: dose 0.1-2 µM.
Data set [9] deals with T1, Histone deacetylase 3 (Mus musculus) (UniProt O88895).
T1 sequence (whole entry): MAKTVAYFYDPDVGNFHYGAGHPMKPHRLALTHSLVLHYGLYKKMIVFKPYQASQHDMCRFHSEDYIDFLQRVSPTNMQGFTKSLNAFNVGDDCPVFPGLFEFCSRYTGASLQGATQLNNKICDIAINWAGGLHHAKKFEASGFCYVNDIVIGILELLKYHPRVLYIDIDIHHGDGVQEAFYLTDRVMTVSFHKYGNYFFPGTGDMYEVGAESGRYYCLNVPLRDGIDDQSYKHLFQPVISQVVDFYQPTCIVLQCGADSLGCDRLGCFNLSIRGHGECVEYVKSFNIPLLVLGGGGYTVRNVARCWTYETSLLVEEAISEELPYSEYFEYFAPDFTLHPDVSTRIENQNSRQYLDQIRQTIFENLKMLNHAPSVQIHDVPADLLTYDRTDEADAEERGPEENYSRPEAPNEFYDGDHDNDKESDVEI
Description: Inhibition of HDAC3 in mouse B16-F10 cells assessed as increase in acetylated H3 level incubated for 12 hrs by Western blot analysis. Format: cell-based. On the technique in general: In western blotting, separated proteins are transferred to a membrane and probed.

Another data set has as its system HepG2. Description: cells. To be noted: Homo sapiens, HepG2, 48 h.
Data set [10] can be described thus: Toxicity in C57 mouse assessed as change in UREA level at 20 mg/kg/day, IG administered for 14 days by heat map analysis. Type of data set: organism-based. To be noted: in vivo, po, 336 h, time 14 day.
The subject of data set [11] is B16-F10. Description: Antitumor activity against mouse B16-F10 cells implanted in C57BL/6 mouse model assessed as tumor growth inhibition at 20 mg/kg/day, ip administered for 14 days relative to control. Type of data set: functional. To be noted: B16-F10, 336 h, time 14 day, read-out: TGI.
Data set [12] relates to Jurkat. Description: Effect on Histone H3 protein level in human Jurkat T cells at 0.1 to 2 uM incubated for 12 hrs by Western blot analysis. Type of data set: functional, cell-based. To be noted: dose 0.1-2 µM.
The nature of data set [13]: AUC (0 to t) in male Sprague-Dawley rat at 10 mg/kg, po measured after 48 hrs by triple quadrupole mass spectrometric analysis. Format: ADME, organism-based. To be noted: in vivo.
Data set [14] can be described thus: Toxicity in C57 mouse assessed as change in AST level at 20 mg/kg/day, IG administered for 14 days by heat map analysis. Type of data set: organism-based. To be noted: in vivo, po, 336 h, time 14 day.
Data set [15] relates to B16-F10. As to the kind of experiment: Antitumor activity against mouse B16-F10 cells implanted in C57BL/6 mouse model assessed as tumor growth inhibition at 20 mg/kg/day, ip co-administered with ACY-1215 for 14 days relative to control. Format: functional. To be noted: B16-F10, 336 h, time 14 day, read-out: TGI.
For data set [16], the target named is Programmed cell death 1 ligand 1 (Mus musculus, UniProt Q9EP73). Description: Binding affinity to C-terminal 6His-tagged recombinant mouse PD-L1 (1 to 238 residues) expressed in HEK293 cells assessed as dissociation constant by ITC analysis. In general terms: In ITC the heat of successive injections is recorded.
Sequence of Programmed cell death 1 ligand 1 (Q9EP73 whole entry, the tested form may be a part): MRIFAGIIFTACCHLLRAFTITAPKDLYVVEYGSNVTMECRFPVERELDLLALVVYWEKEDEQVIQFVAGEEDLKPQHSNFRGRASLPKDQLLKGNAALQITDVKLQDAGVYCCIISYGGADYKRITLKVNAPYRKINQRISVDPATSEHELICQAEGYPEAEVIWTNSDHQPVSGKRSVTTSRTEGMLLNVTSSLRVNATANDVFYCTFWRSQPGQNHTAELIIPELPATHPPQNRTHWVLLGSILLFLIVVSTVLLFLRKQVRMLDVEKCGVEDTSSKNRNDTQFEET
Data set [17] is described as follows: In vivo inhibition of PD-L1 in C57BL/6 mouse model implanted with mouse B16-F10 cells assessed as reduction in PD-L1 protein expression in tumor at 20 mg/kg/day, ip co-administered with ACY-1215 for 14 days by Western blot analysis relative to control. Format: functional. To be noted: C57BL/6, B16-F10, 336 h, time 14 day.
Data set [18] is described as follows: Toxicity in C57 mouse assessed as myelosuppression by measuring platelet level at 20 mg/kg/day, IG administered for 14 days by heat map analysis. Format: organism-based. To be noted: in vivo, po, 336 h, time 14 day.
For data set [19], the system named is B16-F10. Description: Antitumor activity against mouse B16-F10 cells implanted in C57BL/6 mouse model assessed as reduction in tumor weight at 20 mg/kg/day, ip administered for 14 days. Format: functional, organism-based. To be noted: time 14.0 day.

Active and inactive are the calls of the source. The rule behind the calls is not given here.

Sequence of Programmed cell death 1 ligand 1 (Mus musculus) (Q9EP73 whole entry, the tested form may be a part): as above

As for `COc1nc(-c2cccc(-c3ccccc3)c2C)ccc1CNCCCCCCC(=O)NO`, the Activity entry is on record as “Non-toxic” in data set [1]; “Active; Mild Cytotoxicity Observed” with Jurkat [3]; “Non-toxic” in data set [5]; “Non-toxic” in data set [7]; “Non-toxic” in [10]; “Non-toxic” in data set [14]. Further, the Activity entry in data set [18] is “Non-toxic”. Also, the result (in data set [2]; in the data set with B16-F10 [19]) was Active. Moreover, the half-inhibitory concentration (IC50) in the data set on Jurkat [4] was over 10 µM; in the data set on HepG2 it was 3.4 µM. Besides, in data set [6], the Tmax was 4.8 min. Besides, the result in the data set with B16-F10 [8] and in the data set with Jurkat [12] was inactive. Besides, in [9], the inhibition entry was “inactive”. The figures for the inhibition in vivo at 20 mg/kg/day (in the data set with B16-F10 [11]; with B16-F10 [15]; in data set [17]) were 65.5%, 53.9% and about 62%, respectively. In data set [13], the AUC(0-t) at 48 h is 872 ng·h/mL. Besides, the dissociation constant (Kd) in data set [16] worked out at 0.073 µM.
